pEC50: −log10 of the molar value.
Key:
human calcium receptor = target: T1, human calcium receptor (Homo sapiens, UniProt P41180); assay: Activity on calcium receptors: fluo-3 fluorescence in HEK293 cells transfected with human calcium receptor gene; type: cell-based; conditions: HEK293 cells transfected with plasmid pHuPCaR4.0 (human calcium receptor gene), loaded with fluo-3; 1 mM CaCl2, 1 mM MgCl2
T1 construct: expressed in transfected cells; host or cells: HEK293
T1 sequence (P41180 20-1078): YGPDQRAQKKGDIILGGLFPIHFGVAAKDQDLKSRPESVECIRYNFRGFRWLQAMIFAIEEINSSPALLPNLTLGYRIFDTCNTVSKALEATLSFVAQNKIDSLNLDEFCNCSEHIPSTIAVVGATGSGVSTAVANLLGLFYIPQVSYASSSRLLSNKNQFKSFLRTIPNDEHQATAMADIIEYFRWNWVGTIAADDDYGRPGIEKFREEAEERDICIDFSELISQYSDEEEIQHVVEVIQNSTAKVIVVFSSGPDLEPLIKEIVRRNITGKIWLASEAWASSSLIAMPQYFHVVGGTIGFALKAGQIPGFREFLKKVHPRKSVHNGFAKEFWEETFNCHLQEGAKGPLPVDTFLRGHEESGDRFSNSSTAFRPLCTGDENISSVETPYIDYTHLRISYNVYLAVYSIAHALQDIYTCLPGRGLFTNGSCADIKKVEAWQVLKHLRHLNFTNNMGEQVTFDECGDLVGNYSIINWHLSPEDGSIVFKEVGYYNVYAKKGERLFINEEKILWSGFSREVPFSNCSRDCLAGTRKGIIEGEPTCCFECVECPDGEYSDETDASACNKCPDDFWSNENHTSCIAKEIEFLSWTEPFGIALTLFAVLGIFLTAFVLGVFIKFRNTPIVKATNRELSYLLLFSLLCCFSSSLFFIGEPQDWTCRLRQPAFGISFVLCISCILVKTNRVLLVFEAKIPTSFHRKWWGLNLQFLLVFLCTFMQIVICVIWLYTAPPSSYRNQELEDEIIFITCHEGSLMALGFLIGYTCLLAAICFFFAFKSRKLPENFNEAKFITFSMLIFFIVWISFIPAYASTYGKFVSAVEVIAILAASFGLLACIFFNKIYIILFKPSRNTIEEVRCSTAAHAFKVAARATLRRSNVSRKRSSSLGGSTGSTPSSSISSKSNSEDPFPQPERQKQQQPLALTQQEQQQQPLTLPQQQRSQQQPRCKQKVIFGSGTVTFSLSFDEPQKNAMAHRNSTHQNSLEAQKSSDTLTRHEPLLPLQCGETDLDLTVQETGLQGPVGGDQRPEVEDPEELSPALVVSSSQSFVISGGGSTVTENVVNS
Experimental: The activities of the compounds of the present invention on calcium receptors were measured. The measurement was performed in accordance with the method described in Example 4 of Nemeth et al., PCT/US95/13704 (International Publication No. WO96/12697). In brief, HEK293 cells were transfected with a plasmid pHuPCaR4.0 containing a human calcium receptor gene and loaded with fluo-3. The loading was carried out by incubating the cells at 37° C. for 1 hour in Dulbecco's modified Eagle's medium which contained about 5 μM of fluo-3/AM and had been buffered with 20 mM HEPES. Next, the cells were rinsed with Hank's balanced salt solution which contained 1 mM CaCl2 and 1 mM MgCl2 and had been buffered with 20 mM HEPES. Then each test compound was added to the cells and the fluorescence was measured with the use of an excitation wavelength of 485 nm and an emission wavelength of 540 nm.

normal male SD rats = assay: Plasma Ca^2+ level of rats after single oral administration; type: in vivo; conditions: rat, mean of six animals; for Plasma Ca^2+ (mmol/l) 1 hr: 1 hr after single oral dose 30 μmol/kg; for Plasma Ca^2+ (mmol/l) 2 hr: 2 hr after single oral dose 30 μmol/kg; for Plasma Ca^2+ (mmol/l) 4 hr: 4 hr after single oral dose 30 μmol/kg; for Plasma Ca^2+ (mmol/l) 8 hr: 8 hr after single oral dose 30 μmol/kg; for Plasma Ca^2+ (mmol/l) 24 hr: 24 hr after single oral dose 30 μmol/kg; for Plasma Ca^2+ (mmol/l) 0 hr: 0 hr = before oral administration of 30 μmol/kg
Experimental: The compound of the present invention was administered to rats so as to examine the effects of the compound on the plasma calcium ion level and serum PTH level. The test was performed by orally administering single dose of the compound of the invention or a control compound to normal male SD rats with six animals in each group.
To the group 1 was administered as a control a 10% cyclodextrin aqueous solution in a dose of 2.5 ml/kg. To the group 2 was administered as a reference (R)-N-(3-(2-chlorophenyl)propyl)-1-(3-methoxyphenyl)ethylamine (KRN568) dissolved in a 10% cyclodextrin aqueous solution in a dose of 30 μmol/kg. To the group 3 was administered the compound of the present invention dissolved in a 10% cyclodextrin aqueous solution in a dose of 30 μmol/kg, provided that 1% sodium-CMC aqueous solution was used in place of 10% cyclodextrin aqueous solution for the compounds marked with ** in Table 2.
Blood of each rat was collected from the tail tip before the administration and 30 minutes and 1, 2, 4, 8 and 24 hours thereafter (or at the time indicated in Table 2), and the plasma Ca^2+ level and serum PTH level were measured. The data of the serum PTH level were statistically processed by the multiple comparison analysis in accordance with Steel's calibration by using the group 1 as the control.

[1] = vehicle 10% cyclodextrin (** 1% sodium-CMC)

## C[C@@H](NCCCCSc1cc(Cl)ccc1Cl)c1cccc2ccccc12 [Compound K-2298, N-{4-[(2,5-dichlorophenyl)thio]butyl}-N-[(1R)-1-(1-naphthyl)ethyl]amine]
Human calcium receptor
  pEC50: 6.47
Normal male SD rats; [1]
  Plasma Ca^2+ (mmol/l) 1 hr: 1.348 mmol/L
  Plasma Ca^2+ (mmol/l) 2 hr: 1.265 mmol/L
  Plasma Ca^2+ (mmol/l) 4 hr: 1.187 mmol/L
  Plasma Ca^2+ (mmol/l) 8 hr: 1.100 mmol/L

## C[C@@H](NCCC(=O)N(Cc1ccc(OC(F)(F)F)cc1)Cc1ccc(Cl)c(Cl)c1)c1cccc2ccccc12 [Compound K-2272, N1-(3,4-dichlorobenzyl)-N1-[4-(trifluoromethoxy)benzyl)-3-{[(1R)-1-(1-naphthyl)ethyl]-amino}propanamide]
Human calcium receptor
  pEC50: 7.28
Normal male SD rats; [1]
  Plasma Ca^2+ (mmol/l) 1 hr: 1.382 mmol/L
  Plasma Ca^2+ (mmol/l) 2 hr: 1.237 mmol/L
  Plasma Ca^2+ (mmol/l) 4 hr: 1.075 mmol/L
  Plasma Ca^2+ (mmol/l) 8 hr: 1.022 mmol/L
  Plasma Ca^2+ (mmol/l) 24 hr: 1.240 mmol/L

## COc1ccc(CN(Cc2ccc(Cl)cc2)C(=O)CCN[C@H](C)c2cccc3ccccc23)cc1 [Compound K-2289, N1-(4-chlorobenzyl)-N1-(4-methoxybenzyl)-3-{[(1R)-1-(1-naphthyl)ethyl]amino}propanamide]
Human calcium receptor
  pEC50: 7.13
Normal male SD rats; [1]
  Plasma Ca^2+ (mmol/l) 1 hr: 1.270 mmol/L
  Plasma Ca^2+ (mmol/l) 2 hr: 1.173 mmol/L
  Plasma Ca^2+ (mmol/l) 4 hr: 1.003 mmol/L
  Plasma Ca^2+ (mmol/l) 8 hr: 1.093 mmol/L

## C[C@@H](NCCCCSc1ccc(F)cc1)c1cccc2ccccc12 [Compound K-2263, N-{4-[(4-fluorophenyl)thio]butyl}-N-[(1R)-1-(1-naphthyl)ethyl]amine]
Human calcium receptor
  pEC50: 6.96
Normal male SD rats; [1]
  Plasma Ca^2+ (mmol/l) 1 hr: 1.273 mmol/L
  Plasma Ca^2+ (mmol/l) 2 hr: 1.237 mmol/L
  Plasma Ca^2+ (mmol/l) 4 hr: 1.212 mmol/L
  Plasma Ca^2+ (mmol/l) 8 hr: 1.308 mmol/L

## C[C@@H](NCCCCSc1ccc(Cl)cc1)c1cccc2ccccc12 [Compound K-2293, N-{4-[(4-chlorophenyl)thio]butyl}-N-[(1R)-1-(1-naphthyl)ethyl]amine]
Human calcium receptor
  pEC50: 6.55
Normal male SD rats; [1]
  Plasma Ca^2+ (mmol/l) 1 hr: 1.245 mmol/L
  Plasma Ca^2+ (mmol/l) 2 hr: 1.152 mmol/L
  Plasma Ca^2+ (mmol/l) 4 hr: 1.068 mmol/L
  Plasma Ca^2+ (mmol/l) 8 hr: 1.088 mmol/L

## C[C@@H](NCCC(=O)N(Cc1ccc(Cl)cc1)Cc1ccc(C(F)(F)F)cc1)c1cccc2ccccc12 [Compound K-2266, N1-(4-chlorobenzyl)-N1-[(4-trifluoromethyl)benzyl]-3-{[(1R)-1-(1-naphthyl)ethyl]amino}propanamide]
Human calcium receptor
  pEC50: 7.44
Normal male SD rats; [1]
  Plasma Ca^2+ (mmol/l) 0 hr: 1.417 mmol/L
  Plasma Ca^2+ (mmol/l) 1 hr: 1.368 mmol/L
  Plasma Ca^2+ (mmol/l) 2 hr: 1.222 mmol/L
  Plasma Ca^2+ (mmol/l) 4 hr: 1.065 mmol/L
  Plasma Ca^2+ (mmol/l) 8 hr: 1.045 mmol/L
  Plasma Ca^2+ (mmol/l) 24 hr: 1.370 mmol/L

## C[C@@H](NCCC(=O)N(Cc1ccc(C(F)(F)F)cc1)Cc1ccc(Cl)c(Cl)c1)c1cccc2ccccc12 [Compound K-2264, N1-(3,4-dichlorobenzyl)-N1-[(4-trifluoromethyl)benzyl]-3-{[(1R)-1-(1-naphthyl)ethyl]-amino}propanamide]
Human calcium receptor
  pEC50: 7.80
Normal male SD rats; [1]
  Plasma Ca^2+ (mmol/l) 1 hr: 1.335 mmol/L
  Plasma Ca^2+ (mmol/l) 2 hr: 1.203 mmol/L
  Plasma Ca^2+ (mmol/l) 4 hr: 1.013 mmol/L
  Plasma Ca^2+ (mmol/l) 8 hr: 0.998 mmol/L
  Plasma Ca^2+ (mmol/l) 24 hr: 1.182 mmol/L
Normal male SD rats; 31 hr after single oral dose 30 μmol/kg, 1% sodium-CMC
  Plasma Ca^2+ (mmol/l) 31 hr (footnote *a, 48 hr column): 1.240*^a mmol/l

## Cc1ccc(CN(Cc2ccc(C(F)(F)F)cc2)C(=O)CCN[C@H](C)c2cccc3ccccc23)cc1 [Compound K-2299, N1-(4-methylbenzyl)-N1-[4-(trifluoromethyl)benzyl]-3-{[(1R)-1-(1-naphthyl)ethyl]amino}propanamide]
Human calcium receptor
  pEC50: 6.82
Normal male SD rats; [1]
  Plasma Ca^2+ (mmol/l) 1 hr: 1.287 mmol/L
  Plasma Ca^2+ (mmol/l) 2 hr: 1.192 mmol/L
  Plasma Ca^2+ (mmol/l) 4 hr: 0.998 mmol/L
  Plasma Ca^2+ (mmol/l) 8 hr: 0.983 mmol/L
Normal male SD rats; 23 hr after single oral dose 30 μmol/kg, vehicle 10% cyclodextrin (** 1% sodium-CMC)
  Plasma Ca^2+ (mmol/l) 23 hr (footnote *c, 24 hr column): 1.382*^c mmol/l

## CC(NCCSc1cc(Cl)ccc1Cl)c1cccc(OCc2ccc(Cl)cc2)c1 (racemic) [Compound K-2258, (±)-N-(1-(3-(4-chlorobenzyloxy)phenyl)ethyl)-2-(2′,5′-dichlorophenylthio)ethylamine]
Human calcium receptor
  pEC50: 6.42
Normal male SD rats; [1]
  Plasma Ca^2+ (mmol/l) 1 hr: 1.317 mmol/L
  Plasma Ca^2+ (mmol/l) 2 hr: 1.227 mmol/L
  Plasma Ca^2+ (mmol/l) 4 hr: 1.133 mmol/L
  Plasma Ca^2+ (mmol/l) 8 hr: 1.207 mmol/L

## C[C@@H](NCCCCSc1c(F)c(F)c(C(F)(F)F)c(F)c1F)c1cccc2ccccc12 [Compound K-2297, N-[(1R)-1-(1-naphthyl)ethyl]-N-(4-{[2,3,5,6-tetrafluoro-4-(trifluoromethyl)phenyl]thio}butyl)amine]
Human calcium receptor
  pEC50: 6.64
Normal male SD rats; [1]
  Plasma Ca^2+ (mmol/l) 1 hr: 1.393 mmol/L
  Plasma Ca^2+ (mmol/l) 2 hr: 1.305 mmol/L
  Plasma Ca^2+ (mmol/l) 4 hr: 1.172 mmol/L
  Plasma Ca^2+ (mmol/l) 8 hr: 1.082 mmol/L

## Cc1ccc(SCCCCN[C@H](C)c2cccc3ccccc23)cc1 [Compound K-2304, N-{4-[(4-methylphenyl)thio]butyl}-N-[(1R)-1-(1-naphthyl)ethyl]amine]
Human calcium receptor
  pEC50: 7.01
Normal male SD rats; [1]
  Plasma Ca^2+ (mmol/l) 1 hr: 1.262 mmol/L
  Plasma Ca^2+ (mmol/l) 2 hr: 1.157 mmol/L
  Plasma Ca^2+ (mmol/l) 4 hr: 1.053 mmol/L
  Plasma Ca^2+ (mmol/l) 8 hr: 1.065 mmol/L

## C[C@@H](NCCCCSc1cccc(C(F)(F)F)c1)c1cccc2ccccc12 [Compound K-2087, N-[(1R)-1-(1-naphthyl)ethyl]-N-(4-{[3-(trifluoromethyl)phenyl]thio}butyl)amine]
Human calcium receptor
  pEC50: 7.06
Normal male SD rats; [1]
  Plasma Ca^2+ (mmol/l) 1 hr: 1.325 mmol/L
  Plasma Ca^2+ (mmol/l) 2 hr: 1.243 mmol/L
  Plasma Ca^2+ (mmol/l) 4 hr: 1.197 mmol/L
  Plasma Ca^2+ (mmol/l) 8 hr: 1.255 mmol/L

## COc1ccc(CN(Cc2ccc(OC(F)(F)F)cc2)C(=O)CCN[C@H](C)c2cccc3ccccc23)cc1 [Compound K-2311]
Human calcium receptor
  pEC50: 7.28
Normal male SD rats; [1]
  Plasma Ca^2+ (mmol/l) 0 hr: 1.447 mmol/L
  Plasma Ca^2+ (mmol/l) 1 hr: 1.375 mmol/L
  Plasma Ca^2+ (mmol/l) 2 hr: 1.232 mmol/L
  Plasma Ca^2+ (mmol/l) 4 hr: 1.075 mmol/L
  Plasma Ca^2+ (mmol/l) 8 hr: 1.110 mmol/L

## COc1cccc(C(C)NCCCOc2cccc(Cl)c2)c1 (stereo not drawn) [Compound 65]
Human calcium receptor
  pEC50: 6.28

## COc1cccc(C(C)NCCCCCCOc2cccc(Cl)c2)c1 (stereo not drawn) [Compound 12]
Human calcium receptor
  pEC50: 5.92

## COc1cccc([C@@H](C)NCCSc2cc(Cl)ccc2Cl)c1 [Compound K-2066]
Human calcium receptor
  pEC50: 6.59

Source: patent US7816408B2, “Calcium receptor active compounds” (NPS Pharmaceuticals, Inc., priority 2002, dated 2010)
